# Measured values: paper PMC10610505, “Synthesis and Biological Evaluation of Some New 3-Aryl-2-thioxo-2,3-dihydroquinazolin-4(1H)-ones and 3-Aryl-2-(benzylthio)quinazolin-4(3H)-ones as Antioxidants; COX-2, LDHA, α-Glucosidase and α-Amylase Inhibitors; and Anti-Colon Carcinoma and Apoptosis-Inducing Agents” (Pharmaceuticals, 2023)
# Assays:
# [1] = DPPH radical scavenging assay; format: biochemical; conditions: for Mean IC50 for scavenging initial DPPH radicals: mean ± SD of three replicates; for IC50: mean ± SD, converted from mg/mL, read-out: Mean IC50 for scavenging initial DPPH radicals (converted)
# Summary of the method: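 Ethanolic DPPH mixed 1:1 with test compound, BHT as reference antioxidant, incubated 1 h at room temperature in darkness. Residual DPPH absorbance read at 519 nm against a no-compound control; scavenging % = (1 − Acompound/AControl) × 100, from three independent triplicate measurements.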
# [2] = target: purified recombinant human LDHA protein (Homo sapiens, UniProt P00338); assay: Lactate dehydrogenase A (LDHA) inhibitory assay; format: biochemical; conditions: for Fold change of LDHA inhibition as compared to 0.1 mg/mL: % inhibition at 0.200 mg/mL divided by % inhibition at 0.100 mg/mL; for inhibition at 100 µg/mL: at 0.1 mg/mL; for inhibition at 100 µg/mL / inhibition at 200 µg/mL: read-out: LDHA mean % inhibition ± SD; for inhibition at 200 µg/mL: at 0.2 mg/mL
# Protocol: The LDHA inhibitory effectiveness was investigated by measuring the amounts of consumed NADH [73]. […] The fluorescence of NADH, which has an excitation wavelength of 340 nm and an emission wavelength of 460 nm, was detected using a spectrofluorometer. […] The LDHA inhibitory efficiency was expressed as an inhibition percentage, which was determined via a comparison with the negative control experiments.
# Bax gene = assay: qRT-PCR expressional level of Bax gene; format: cell-based, human; conditions: 10 µg/mL, HCT-116 and LoVo cells, vs negative control
# Protocol: Considering these facts, enhancing apoptosis has been extensively studied as a potential drug target in cancer therapy, therefore, in this study, we investigated the effects of the most cytotoxic compounds, 3a and 3f, (at 10 µg/mL, 24 h incubation) on the expressional levels of these apoptotic regulator genes (Bax and Bcl-2) using quantitative reverse transcription–polymerase chain reactions (qRT-PCR).
# Briefly, in a 25 mL flask (1 × 10^6 cells/flask), the human colon cancer cell lines (HCT-116 and LoVo) were grown for 24 h. After replacing the culture media with a medium containing 1% FBS for 24 h, the cells were treated with 10 µg/mL of each tested compound in 2 mL of fresh medium containing 1% FBS, or 0.25% DMSO, which was used as the negative control. The cells were adherent cells and they were detached using trypsin after being washed with ice-cold phosphate-buffered saline (PBS).
# Primers specific for the Bax, Bcl-2 and Caspase-3 genes were designed using the primer blast (https://www.ncbi.nlm.nih.gov/tools/primer-blast/ accessed on 9 January 2023) software. The primers were used in the RT-qPCR analysis to amplify fragments of 100–200 bp in length (Table 11).
# The RNeasy Mini Kit (Qiagen, Hilden, Germany) was used to extract the total RNA. The RNA purity, quality and quantity were checked using a Nanodrop 8000 spectrophotometer (Thermo Fisher Scientific, USA). […]
# HCT-116 carcinoma cells = assay: Annexin-V-FITC/PI flow cytometry, HCT-116; format: cell-based, human; conditions: 50 µg/mL, 48 h; for Early apoptotic cells (Annexin-V positive, PI negative): lower right quadrant; for Late apoptotic cells (Annexin-V and PI positive): upper right quadrant
# Protocol: (§1) In order to examine the effect of compounds 3a and 3f on the apoptosis of HCT-116 and LoVo carcinoma cells, the Annexin-V-FITC probe was used and flow cytometry analyses were performed (Figure 7).
# (§2) The percentages of the early apoptotic cells (Annexin-V positive and propidium iodide, PI negative) and late apoptotic cells (both Annexin-V and PI positive) were then calculated. Annexin V-PI staining was also performed to distinguish apoptotic and necrotic cell deaths.
# (§3) The distribution of early and late apoptotic cells after treatment with compounds 3a and 3f was carried out using an Annexin V-FITC Apoptosis Detection Kit (BioVisionResearch Products—USA). HCT-116 and LoVo carcinoma cells were seeded in 60 mm^2 culture dishes and treated with the vehicles DMSO, and compounds 3a and 3f (50 µg/mL) for 48 h. Cells were then harvested, washed twice with PBS and resuspended in an Annexin-V binding buffer (BioVisionResearch Products—USA). Finally, the cells were stained with Annexin V-FITC and propidium iodide (PI). The fluorescent intensity of the stained cancer cells was determined using an FITC signal detector (usually FL1) and PI staining with the phycoerythrin emission signal detector (through quadrant statistics for necrotic and apoptotic cell populations).
# LoVo carcinoma cells = assay: Annexin-V-FITC/PI flow cytometry, LoVo; format: cell-based, human; conditions: 50 µg/mL, 48 h; for Early apoptotic cells (Annexin-V positive, PI negative): lower right quadrant; for Late apoptotic cells (Annexin-V and PI positive): upper right quadrant
# Protocol: as §1, §2, §3
# α-amylase = assay: In vitro α-amylase (AA) inhibition assay; conditions: mean ± SD of three replicates; for IC50: read-out: Mean IC50 α-Amylase (AA)
# Protocol: Then, 180 µL of Labtest (the amylase substrate) was added and the samples were incubated for 8 min, followed by measuring the first reaction at 620 nm to obtain (X1). Afterwards, the reaction mixture was incubated for an additional 5 min at 37 °C; then, the second reaction was measured to obtain the final reading (X2). […] The results were expressed as IC50 µg/mL (as well as µM) and were determined from the standard curves.
Structure (SMILES),Mean IC50 for scavenging initial DPPH radicals [1] [µg/mL],IC50 [1] [µM],Fold change of LDHA inhibition as compared to 0.1 mg/mL [2] [fold],inhibition at 100 µg/mL [2] [%],inhibition at 200 µg/mL [2] [%],IC50 ([2]; mean ± SD of three replicates) [µM],Expression level of Bax gene (Bax gene),"Early apoptotic cells (Annexin-V positive, PI negative) (HCT-116 carcinoma cells) [%]",Late apoptotic cells (Annexin-V and PI positive) (HCT-116 carcinoma cells) [%],"Early apoptotic cells (Annexin-V positive, PI negative) (LoVo carcinoma cells) [%]",Late apoptotic cells (Annexin-V and PI positive) (LoVo carcinoma cells) [%],Mean IC50 α-Amylase (AA) (α-amylase) [µg/mL],IC50 (α-amylase) [µM]
"O=c1c2cc(Cl)ccc2[nH]c(=S)n1-c1cccc(C(F)(F)F)c1 [Compound 3a, 6-Chloro-2-thioxo-3-(3-trifluoromethyl-phenyl)-2,3-dihydro-1H-quinazolin-4-one]",68 ± 4,191,1.84,53.5 ± 1.13,98.5 ± 1.34,273,upregulate,14.6,6.56,18.29,11.01,124.333 ± 4.042,349
"O=c1c2cc(Cl)ccc2[nH]c(=S)n1-c1ccc([N+](=O)[O-])cc1 [Compound 3f, 6-Chloro-3-(4-nitro-phenyl)-2-thioxo-2,3-dihydro-1H-quinazolin-4-one]",227 ± 10,680,1.59,21.5 ± 1.56,34.2 ± 1.77,–,upregulate,9.59,5.32,12.97,4.66,111.667 ± 3.512,335
